# Data: the supplement of paper PMC10307832
# Columns and labels:
# Assay in all cases: relative viability (nuclei count vs DMSO), 5 days (fraction); higher = more cells survive
# [1] = test system: NCI-H1355
# Summary of the method: (§1)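 Dosing by pin tool came one day after lung cancer cell lines were seeded in 1536-well plates, using either one drug or a fixed anchor-drug dose plus five library-drug doses (not always all listed) in √10 steps. After 5 days, nuclei were counted on 4× images. Relative viability is treated-well nuclei count divided by vehicle-well nuclei count, and values are medians of duplicate plates.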
# [2] = test system: HCC-78
# Summary of the method: as §1
# [3] = test system: NCI-H2342
# Summary of the method: as §1
# [4] = test system: LCLC-97TM1
# Summary of the method: as §1
# [5] = test system: NCI-H1975
# Summary of the method: as §1
# [6] = test system: SK-MES-1
# Summary of the method: as §1
# [7] = test system: PC-3 [JPC-3]
# Summary of the method: as §1
# [8] = test system: LC-2-ad
# Summary of the method: as §1
# [9] = test system: NCI-H358
# Summary of the method: as §1
# [10] = test system: NCI-H650
# Summary of the method: as §1
# [11] = test system: NCI-H838
# Summary of the method: as §1
# [12] = test system: LK-2
# Summary of the method: as §1
# [13] = test system: BEN
# Summary of the method: as §1
# [14] = test system: LU99A
# Summary of the method: as §1
# [15] = test system: LXF-289
# Summary of the method: as §1
# [16] = test system: NCI-H1651
# Summary of the method: as §1
# [17] = test system: NCI-H1944
# Summary of the method: as §1
# [18] = test system: NCI-H2087
# Summary of the method: as §1
# [19] = test system: ChaGo-K-1
# Summary of the method: as §1
# [20] = test system: NCI-H661
# Summary of the method: as §1
# [21] = test system: NCI-H1666
# Summary of the method: as §1
structure (smiles),measurement,setting,value
COc1nc(C)cnc1NS(=O)(=O)c1cccnc1-c1ccc(-c2nnco2)cc1 [Zibotentan] + CC(=O)c1c(C)c2cnc(Nc3ccc(N4CCNCC4)cn3)nc2n(C2CCCC2)c1=O [Palbociclib] (partner 0.5 µM),relative viability,[1]; first compound 0.08 µM,0.407
same,relative viability,[1]; first compound 0.253 µM,0.418
same,relative viability,[1]; first compound 0.8 µM,0.388
same,relative viability,[1]; first compound 2.53 µM,0.435
same,relative viability,[2]; first compound 0.08 µM,0.464
same,relative viability,[2]; first compound 0.253 µM,0.488
same,relative viability,[2]; first compound 0.8 µM,0.512
same,relative viability,[2]; first compound 2.53 µM,0.512
same,relative viability,[3]; first compound 0.08 µM,0.507
same,relative viability,[3]; first compound 0.253 µM,0.557
same,relative viability,[3]; first compound 0.8 µM,0.558
same,relative viability,[3]; first compound 2.53 µM,0.506
same,relative viability,[4]; first compound 0.08 µM,0.236
same,relative viability,[4]; first compound 0.253 µM,0.247
same,relative viability,[4]; first compound 0.8 µM,0.228
same,relative viability,[4]; first compound 2.53 µM,0.253
same,relative viability,[5]; first compound 0.08 µM,0.517
same,relative viability,[5]; first compound 0.253 µM,0.526
same,relative viability,[5]; first compound 0.8 µM,0.553
same,relative viability,[5]; first compound 2.53 µM,0.596
same,relative viability,[6]; first compound 0.08 µM,0.309
same,relative viability,[6]; first compound 0.253 µM,0.284
same,relative viability,[6]; first compound 0.8 µM,0.35
same,relative viability,[6]; first compound 2.53 µM,0.362
same,relative viability,[7]; first compound 0.08 µM,0.556
same,relative viability,[7]; first compound 0.253 µM,0.548
same,relative viability,[7]; first compound 0.8 µM,0.537
same,relative viability,[7]; first compound 2.53 µM,0.581
same,relative viability,[8]; first compound 0.08 µM,0.489
same,relative viability,[8]; first compound 0.253 µM,0.459
same,relative viability,[8]; first compound 0.8 µM,0.44
same,relative viability,[8]; first compound 2.53 µM,0.508
same,relative viability,[9]; first compound 0.08 µM,0.152
same,relative viability,[9]; first compound 0.253 µM,0.117
same,relative viability,[9]; first compound 2.53 µM,0.125
same,relative viability,[10]; first compound 0.08 µM,0.339
same,relative viability,[10]; first compound 0.253 µM,0.371
same,relative viability,[10]; first compound 0.8 µM,0.351
same,relative viability,[10]; first compound 2.53 µM,0.355
same,relative viability,[11]; first compound 0.08 µM,0.227
same,relative viability,[11]; first compound 0.253 µM,0.207
same,relative viability,[11]; first compound 0.8 µM,0.191
same,relative viability,[11]; first compound 2.53 µM,0.233
same,relative viability,[12]; first compound 0.08 µM,0.609
same,relative viability,[12]; first compound 0.253 µM,0.544
same,relative viability,[12]; first compound 0.8 µM,0.62
same,relative viability,[12]; first compound 2.53 µM,0.609
same,relative viability,[13]; first compound 0.08 µM,0.496
same,relative viability,[13]; first compound 0.253 µM,0.493
same,relative viability,[13]; first compound 0.8 µM,0.451
same,relative viability,[13]; first compound 2.53 µM,0.44
same,relative viability,[14]; first compound 0.08 µM,0.394
same,relative viability,[14]; first compound 0.253 µM,0.442
same,relative viability,[14]; first compound 0.8 µM,0.462
same,relative viability,[14]; first compound 2.53 µM,0.402
same,relative viability,[15]; first compound 0.08 µM,0.577
same,relative viability,[15]; first compound 0.253 µM,0.55
same,relative viability,[15]; first compound 0.8 µM,0.592
same,relative viability,[15]; first compound 2.53 µM,0.61
same,relative viability,[16]; first compound 0.08 µM,0.521
same,relative viability,[16]; first compound 0.253 µM,0.522
same,relative viability,[16]; first compound 0.8 µM,0.48
same,relative viability,[16]; first compound 2.53 µM,0.492
same,relative viability,[17]; first compound 0.08 µM,0.366
same,relative viability,[17]; first compound 0.253 µM,0.301
same,relative viability,[17]; first compound 0.8 µM,0.333
same,relative viability,[17]; first compound 2.53 µM,0.39
same,relative viability,[18]; first compound 0.08 µM,0.221
same,relative viability,[18]; first compound 0.253 µM,0.263
same,relative viability,[18]; first compound 0.8 µM,0.297
same,relative viability,[18]; first compound 2.53 µM,0.268
same,relative viability,[19]; first compound 0.08 µM,0.965
same,relative viability,[19]; first compound 0.253 µM,0.945
same,relative viability,[19]; first compound 0.8 µM,0.947
same,relative viability,[19]; first compound 2.53 µM,0.972
same,relative viability,[20]; first compound 0.08 µM,0.421
same,relative viability,[20]; first compound 0.253 µM,0.384
same,relative viability,[20]; first compound 0.8 µM,0.455
same,relative viability,[20]; first compound 2.53 µM,0.396
same,relative viability,[21]; first compound 0.08 µM,0.682
same,relative viability,[21]; first compound 0.253 µM,0.594
same,relative viability,[21]; first compound 0.8 µM,0.694
same,relative viability,[21]; first compound 2.53 µM,0.692
